Read-outs that look alike come from different tables or passages of the source.
Tests used:
[1] = test system: P. falciparum 3D7 parasites; assay: P. falciparum growth inhibition assay, 1-cycle (72 h treatment), SYBR DNA staining (library screen at 2 μg/mL and dose-response); assay type: cell-based, Plasmodium falciparum; settings: for activity at 2 µg/mL: Plasmodium falciparum
[2] = test system: P. falciparum 3D7 parasites; assay: P. falciparum growth inhibition assay, 2-cycle (120 h treatment), delayed-death screen and dose-response; assay type: cell-based, Plasmodium falciparum; settings: for activity at 2 µg/mL: Plasmodium falciparum
[3] = test system: T. gondii RH strain (RH-Tub-eYFP) tachyzoites; assay: microbe, parasite or virus in culture; assay type: cell-based, Toxoplasma gondii; settings: for percent parasite growth at 2 µg/mL: Toxoplasma gondii
[4] = 3D7, P. falciparum, 72 h, screen at 2 μg/mL, replicate 1, read-out: Pf_72h_%Growth_Rep1
[5] = 3D7, P. falciparum, 72 h, screen at 2 μg/mL, replicate 2, read-out: Pf_72h_%Growth_Rep2
[6] = 3D7, P. falciparum, 120 h, screen at 2 μg/mL, replicate 1, read-out: Pf_120h_%Growth_Rep1
[7] = 3D7, P. falciparum, 120 h, screen at 2 μg/mL, replicate 2, read-out: Pf_120h_%Growth_Rep2
[8] = 72 h, T. gondii, 72 h, screen at 2 μg/mL, replicate 1, read-out: Tg_72h_%Growth_Rep1
[9] = 72 h, T. gondii, 72 h, screen at 2 μg/mL, replicate 2, read-out: Tg_72h_%Growth_Rep2

With `CCCCCCCCCCC[C@@H](C[C@@H]1OC(=O)[C@H]1CCCCCC)OC(=O)[C@H](CC(C)C)NC=O` [Tetrahydrolipstatin] the activity at 2 µg/mL [1, 4] was 74.2%, the activity at 2 µg/mL [1, 5] was 88.8% and the activity at 2 µg/mL [2, 6] was 171%. It also gave an activity at 2 µg/mL [2, 7] of 93.3%, a percent parasite growth at 2 µg/mL [3, 8] of 88.5% and a percent parasite growth at 2 µg/mL [3, 9] of 98.4%.

`CC(C)=CCCC(C)C1CCC2(C)CC3C(C(=O)CC3(C)O)C(C=O)=CCC12` (stereo not drawn) [BIA-O1199] gave a Pf_72h_%Growth_Rep1 ([1]; P. falciparum 3D7, 72 h, parasite screen at 2 μg/mL, % growth, replicate 1) of -0.50%, a Pf_72h_%Growth_Rep2 ([1]; P. falciparum 3D7, 72 h, parasite screen at 2 μg/mL, % growth, replicate 2) of -3.29% and a Pf_120h_%Growth_Rep1 ([2]; P. falciparum 3D7, 120 h, parasite screen at 2 μg/mL, % growth, replicate 1) of 3.94%. For the same compound, the Pf_120h_%Growth_Rep2 ([2]; P. falciparum 3D7, 120 h, parasite screen at 2 μg/mL, % growth, replicate 2) was 138.56%, the Tg_72h_%Growth_Rep1 ([3]; T. gondii, 72 h, parasite screen at 2 μg/mL, % growth, replicate 1) was 7.63% and the Tg_72h_%Growth_Rep2 ([3]; T. gondii, 72 h, parasite screen at 2 μg/mL, % growth, replicate 2) was 89.80%.

`COc1cc(-c2oc3c(OC)c(OC)cc(O)c3c(=O)c2OC)ccc1O` [Ternatin] was tested, and the activity at 2 µg/mL [1, 4] was 64%, the activity at 2 µg/mL [1, 5] was 81% and the activity at 2 µg/mL [2, 6] was 137%. It also gave an activity at 2 µg/mL [2, 7] of 71.9%, a percent parasite growth at 2 µg/mL [3, 8] of 71.2% and a percent parasite growth at 2 µg/mL [3, 9] of 66.7%.

For `C=CC(C)(C)c1[nH]c2ccccc2c1C[C@@H]1NC(=O)[C@@H]2CCCN2C1=O` [Deoxybrevianamide E], the Pf_72h_%Growth_Rep1 ([1]; P. falciparum, 72 h, screen at 2 μg/mL, replicate 1) was 84.72%, the Pf_72h_%Growth_Rep2 ([1]; P. falciparum, 72 h, screen at 2 μg/mL, replicate 2) was 85.50% and the Pf_120h_%Growth_Rep1 ([2]; P. falciparum, 120 h, screen at 2 μg/mL, replicate 1) was 100.44%. The Pf_120h_%Growth_Rep2 ([2]; P. falciparum, 120 h, screen at 2 μg/mL, replicate 2) was 95.74%, the Tg_72h_%Growth_Rep1 ([3]; T. gondii, 72 h, screen at 2 μg/mL, replicate 1) was 164.73% and the Tg_72h_%Growth_Rep2 ([3]; T. gondii, 72 h, screen at 2 μg/mL, replicate 2) was 103.33%.

Work on `CO[C@H]1C[C@@H]2CC[C@@H](C)[C@@](O)(O2)C(=O)C(=O)N2CCCC[C@H]2C(=O)O[C@H]([C@H](C)C[C@@H]2CC[C@@H](OP(C)(C)=O)[C@H](OC)C2)CC(=O)[C@H](C)/C=C(\C)[C@@H](O)[C@@H](OC)C(=O)[C@H](C)C[C@H](C)/C=C/C=C/C=C/1C` [Ridaforolimus] yielded an activity at 2 µg/mL ([1]; 3D7, 72 h, P. falciparum, 72 h, parasite screen 2 μg/mL, % growth, replicate 1, read-out: Pf_72h_%Growth_Rep1) of 68.5%, an activity at 2 µg/mL ([1]; 3D7, 72 h, P. falciparum, 72 h, parasite screen 2 μg/mL, % growth, replicate 2, read-out: Pf_72h_%Growth_Rep2) of 69.8% and an activity at 2 µg/mL ([2]; 3D7, 120 h, P. falciparum, 120 h, parasite screen 2 μg/mL, % growth, replicate 1, read-out: Pf_120h_%Growth_Rep1) of 75.1%. The activity at 2 µg/mL ([2]; 3D7, 120 h, P. falciparum, 120 h, parasite screen 2 μg/mL, % growth, replicate 2, read-out: Pf_120h_%Growth_Rep2) was 55.3%, the percent parasite growth at 2 µg/mL ([3]; 72 h, T. gondii, 72 h, parasite screen 2 μg/mL, % growth, replicate 1, read-out: Tg_72h_%Growth_Rep1) was 128% and the percent parasite growth at 2 µg/mL ([3]; 72 h, T. gondii, 72 h, parasite screen 2 μg/mL, % growth, replicate 2, read-out: Tg_72h_%Growth_Rep2) was 84.7%.

Compound `C[C@H]1O[C@H](O[C@H]2[C@H](O)[C@@H](O)[C@@H](O[C@H]3[C@H](O)[C@@H](O)C(O)O[C@@H]3CO)O[C@@H]2CO)[C@H](O)[C@@H](O)[C@@H]1N[C@H]1C=C(CO)[C@@H](O)[C@H](O)[C@H]1O` (stereo partly drawn) [Acarbose] has an activity at 2 µg/mL ([1]; 3D7, library screen at 2 μg/mL, 72 h, % growth, replicate 1, read-out: Pf_72h_%Growth_Rep1) of 83.3%, an activity at 2 µg/mL ([1]; 3D7, library screen at 2 μg/mL, 72 h, % growth, replicate 2, read-out: Pf_72h_%Growth_Rep2) of 87.2% and an activity at 2 µg/mL ([2]; 3D7, library screen at 2 μg/mL, 120 h, % growth, replicate 1, read-out: Pf_120h_%Growth_Rep1) of 85.5%. For the same compound, the activity at 2 µg/mL ([2]; 3D7, library screen at 2 μg/mL, 120 h, % growth, replicate 2, read-out: Pf_120h_%Growth_Rep2) was 82.2%, the percent parasite growth at 2 µg/mL ([3]; 72 h, library screen at 2 μg/mL, 72 h, % growth, replicate 1, read-out: Tg_72h_%Growth_Rep1) was 105% and the percent parasite growth at 2 µg/mL ([3]; 72 h, library screen at 2 μg/mL, 72 h, % growth, replicate 2, read-out: Tg_72h_%Growth_Rep2) was 86.3%.

Work on `CC1CCCCCC(=O)c2c(O)cc(O)cc2CC(=O)O1` (stereo not drawn) [Curvularin] yielded an activity at 2 µg/mL [1, 4] of 94%, an activity at 2 µg/mL [1, 5] of 47.8% and an activity at 2 µg/mL [2, 6] of 93.3%. The activity at 2 µg/mL [2, 7] was 122%, the percent parasite growth at 2 µg/mL [3, 8] was 143% and the percent parasite growth at 2 µg/mL [3, 9] was 80.4%.

In the case of `COc1cc2c(c3oc(=O)c4c(c13)CCOC4=O)C1C=COC1O2` (stereo not drawn) [Aflatoxin G1], the Pf_72h_%Growth_Rep1 [1] is reported as 72.54%, the Pf_72h_%Growth_Rep2 [1] is reported as 87.39% and the Pf_120h_%Growth_Rep1 [2] is reported as 145.89%. For the same compound, the Pf_120h_%Growth_Rep2 [2] was 92.80%, the Tg_72h_%Growth_Rep1 [3] was 81.49% and the Tg_72h_%Growth_Rep2 [3] was 92.08%.

Reference: paper PMC12396409, “Screening and hit evaluation of a microbial metabolite library against the pathogenic Plasmodium falciparum and Toxoplasma gondii parasites” (International Journal for Parasitology: Drugs and Drug …, 2025)
